Reference: US20100160391A1, “Substituted Aminopyridines as Fluorescent Reporters for Amide Hydrolases” (priority 2006, published 2010)

What was measured:
[1] = system: amidases, microsomes from High Five cells; experiment: Specific activity, microsomes from High Five cells; conditions: pH 8.0, 37° C.; NM = not measurable at the same protein concentration as other substrates
Description: Preparation of recombinant human FAAH. Transgenic expression of the human FAAH in a baculovirus system was performed by following the method described in Nishi et al., Arch. […] The cDNA encoding human FAAH (GenBank Accession No. NM—001441) was amplified by PCR using a human liver cDNA library (Invitrogen; Carlsbad, Calif.) as a template. The primer pair was 5′-[sequence]-3′ and 5′-[sequence]-3′. BglII and EcoRI endonuclease sites (underlined) were incorporated just upstream of the start codon and downstream of the stop codon of the coding sequence of FAAH, respectively. The PCR products were cloned into a pCR2.1 vector (Invitrogen) and the nucleotide sequence was verified by DNA sequencing. The cDNA fragments were then excised and directionally ligated to the BglII and EcoRI sites of the baculovirus transfer vector pAcUW21 (Lopez-Ferber et al., Baculovirus transfer vectors, in “Baculovirus Expression Protocols,” Richardson (Ed.), pp 25-63, Humana Press, Totowa, N.J., 1995). Recombinant baculoviruses harboring the human FAAH gene, Ac-hFAAH, were generated by co-transfection of Spodoptera frugiperda-derived Sf21 cells with the recombinant transfer vector plasmid and Bsu36I-cleaved BacPAK6 viral DNA (Clontech Laboratories; Mountain View, Calif.) as described in O'Reilly et al., Baculovirus Expression Vectors: A Laboratory Manual, Oxford University Press, New York, 1992. Trichoplusia ni-derived High Five cells (1×10^6 cells/ml) were inoculated with a high titer of Ac-hFAAH. At 72 hours post-infection, the infected cells were harvested by centrifugation at 2,000×g for 20 min at 4° C. and suspended in 50 mM Tris-HCl (pH 8.0) containing 150 mM NaCl, 1 mM EDTA, 1 μM pepstatin, 100 μM leupeptin, and 0.1 mg/ml aprotinin. The cell suspension was then homogenized using a Polytron homogenizer and centrifuged at 10,000×g for 20 min at 4° C. […]
Comparison of the lowest detection limits of protein concentration of FAAH toward colorimetric and fluorescent substrates. […] The lowest detection limits of microsomal fatty acid amide hydrolase (FAAH) by substrates were determined by the fact that the signal at 10 min after kinetic measurements are equal to or over three times the noise or basal line at 0 min. Colorimetric substrate (16) assays were performed in clear 96-well microtititer plates using an absorbance wavelength at 382 nm. The fluorescent substrates containing 5-amino-2-methoxypyridine (e.g., 10, 13) were measured at an excitation wavelength (302 nm), emission wavelength (396 nm), and auto cutoff wavelength (325 nm). Similarly, the fluorescent substrates containing 5-amino-2-methoxy-6-methylpyridine (e.g., 11, 14, and 17) were measured at an excitation wavelength (304 nm), emission wavelength (392 nm), and an auto cutoff wavelength of 325 nm. […]

[2] = biological target: T1, human FAAH, microsomes from FAAH cells (Homo sapiens, UniProt O00519); experiment: Specific activity, microsomes from FAAH cells; assay type: biochemical
T1 construct: made in house; host or cells: Trichoplusia ni High Five cells infected with recombinant baculovirus Ac-hFAAH; microsomal fraction
T1 sequence (O00519 1-579): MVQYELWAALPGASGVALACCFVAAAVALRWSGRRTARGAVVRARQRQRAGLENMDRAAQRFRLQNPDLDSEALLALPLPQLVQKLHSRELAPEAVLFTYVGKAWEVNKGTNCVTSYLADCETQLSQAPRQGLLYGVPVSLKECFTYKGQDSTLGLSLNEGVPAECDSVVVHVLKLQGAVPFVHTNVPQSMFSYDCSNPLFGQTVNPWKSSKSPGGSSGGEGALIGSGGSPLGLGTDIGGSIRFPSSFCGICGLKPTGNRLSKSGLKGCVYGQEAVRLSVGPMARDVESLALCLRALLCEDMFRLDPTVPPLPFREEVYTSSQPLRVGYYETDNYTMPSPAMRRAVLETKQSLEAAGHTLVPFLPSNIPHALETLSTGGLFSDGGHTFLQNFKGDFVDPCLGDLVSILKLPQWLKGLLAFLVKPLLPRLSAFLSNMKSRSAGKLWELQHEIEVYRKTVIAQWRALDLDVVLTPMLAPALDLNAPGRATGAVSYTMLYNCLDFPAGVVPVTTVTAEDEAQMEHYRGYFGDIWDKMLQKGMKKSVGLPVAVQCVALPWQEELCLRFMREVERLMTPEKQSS
Description: Preparation of recombinant human FAAH. Transgenic expression of the human FAAH in a baculovirus system was performed by following the method described in Nishi et al., Arch. Biochem. Biophys., 445:115-123 (2006). The cDNA encoding human FAAH (GenBank Accession No. NM_001441) was amplified by PCR using a human liver cDNA library (Invitrogen; Carlsbad, Calif.) as a template. The primer pair was 5′-[…]-3′ and 5′-[…]-3′. BglII and EcoRI endonuclease sites (underlined) were incorporated just upstream of the start codon and downstream of the stop codon of the coding sequence of FAAH, respectively. The PCR products were cloned into a pCR2.1 vector (Invitrogen) and the nucleotide sequence was verified by DNA sequencing. The cDNA fragments were then excised and directionally ligated to the BglII and EcoRI sites of the baculovirus transfer vector pAcUW21 (Lopez-Ferber et al., Baculovirus transfer vectors, in “Baculovirus Expression Protocols,” Richardson (Ed.), pp 25-63, Humana Press, Totowa, N.J., 1995). Recombinant baculoviruses harboring the human FAAH gene, Ac-hFAAH, were generated by co-transfection of Spodoptera frugiperda-derived Sf21 cells with the recombinant transfer vector plasmid and Bsu36I-cleaved BacPAK6 viral DNA (Clontech Laboratories; Mountain View, Calif.) as described in O'Reilly et al., Baculovirus Expression Vectors: A Laboratory Manual, Oxford University Press, New York, 1992. Trichoplusia ni-derived High Five cells (1×10^6 cells/ml) were inoculated with a high titer of Ac-hFAAH. At 72 hours post-infection, the infected cells were harvested by centrifugation at 2,000×g for 20 min at 4° C. and suspended in 50 mM Tris-HCl (pH 8.0) containing 150 mM NaCl, 1 mM EDTA, 1 μM pepstatin, 100 μM leupeptin, and 0.1 mg/ml aprotinin. The cell suspension was then homogenized using a Polytron homogenizer and centrifuged at 10,000×g for 20 min at 4° C. The microsomal fraction was collected by ultracentrifugation of the supernatant at 100,000×g for 60 min at 4° C. The pellet was resuspended in 20 mM Tris-HCl (pH 8.0) containing 10% (w/v) glycerol and 1% (w/v) Triton-X 100 and stored at −80° C. until use.
Comparison of the lowest detection limits of protein concentration of FAAH toward colorimetric and fluorescent substrates. In general, all assays were performed in 96-well styrene flat-bottom microtiter plates with a Spectra Max M2 spectrophotometer at 37° C. for […]. The total volume of each well was 201 μl consisting of 0.1 M sodium phosphate buffer (pH 8.0) (190 μl) containing 1% glycerol and 0.1% Triton-X 100, stock or diluted protein solution (10 μl), and the substrate solution (1 μl) in ethanol (final concentration 200 μM for 10, 11, 13 or 14) or in DMSO (final concentration 25 μM for 12, 15, or 16; 50 μM for 17). The lowest detection limits of microsomal fatty acid amide hydrolase (FAAH) by substrates were determined by the fact that the signal at 10 min after kinetic measurements are equal to or over three times the noise or basal line at 0 min. Colorimetric substrate (16) assays were performed in clear 96-well microtititer plates using an absorbance wavelength at 382 nm. The fluorescent substrates containing 5-amino-2-methoxypyridine (e.g., 10, 13) were measured at an excitation wavelength (302 nm), emission wavelength (396 nm), and auto cutoff wavelength (325 nm). Similarly, the fluorescent substrates containing 5-amino-2-methoxy-6-methylpyridine (e.g., 11, 14, and 17) were measured at an excitation wavelength (304 nm), emission wavelength (392 nm), and an auto cutoff wavelength of 325 nm. In addition, an excitation wavelength (366 nm), emission wavelength (496 nm), and auto cutoff wavelength (495 nm) were used for the substrates (e.g., 12 and 15) containing 7-amino-4-trifluoromethyl coumarin.
Specific activity determination. The assays for specific activities were performed as described above for the sensitivity assay. […]

[3] = Dependence of relative fluorescent intensity on pH values; assay type: physicochemical; conditions: 25 μM, pH 8, excitation 302 nm
Description: The dependence of relative fluorescent intensity on pH values. 5-amino-2-methoxypyridine (6) was used to determine whether protonization/de-protonization affects the relative fluorescent intensities of the reporters. A stock solution of (6) in ethanol (5 μl, 5 mM) was added to 995 μl 0.1 M sodium phosphate buffer (from pH 6.0 to pH 8.0) or 0.1 M Tris/HCl buffer (pH 9.0) in a quartz cuvette (final substrate concentration 25 μM). Relative fluorescent unit/intensity (RFU) for emission spectra was recorded by a 2 nm interval at room temperature using a fixed excitation wavelength (λ=302 nm). The RFU of each pH value was an average of triplicates and the standard deviation for each point was less than 1%. Similarly, the RFU of the excitation spectrum was recorded by a 2 nm interval at room temperature using a fixed emission wavelength (λ=396 nm) in 0.1 M phosphate buffer (pH 8.0).

Question: With CCCCCCCC(=O)Nc1ccc(OC)nc1 [Compound 13, N-(6-methoxypyridin-3-yl) octanamide] as the compound, how does the “Specific activity, Microsomes from High Five cells” value [1] read?
Answer: 793 ± 38.9 pmol/min/mg protein

Question: And the melting point?
Answer: 61.2 to 61.7 °C

Question: What about the “enhancement of activity, microsomes from FAAH-expressing cells compared with High Five cells” value [2] of the same compound?
Answer: 254 times

Question: And the “preference of FAAH for substrate (13) over (14), specific activity” value ([2]; Table 4)?
Answer: 10 times

Question: What about the “Specific activity, Microsomes from FAAH cells” value ([2]; pH 8.0, 37° C., NM = not measurable at the same protein concentration as other substrates) of the same compound?
Answer: 202.6 ± 3.3 nmol/min/mg protein

Question: And the “relative fluorescent intensity of substrate emission at the maximal excitation wavelength of (6)” value [3]?
Answer: less than 200 RFU
